# Test results taken from patent US20230301890A1, “COMPOSITIONS COMPRISING UROLITHINS” (Amazentis SA, priority 2022, published 2023).
# “Also recorded” adds a separate entry of the source.
# How the values were obtained:
# [1] = system: skin barrier function; experiment: Skin barrier function (TEWL) by Tewameter, aging studies; assay type: in vivo, human; details: UA 1% topical, 8 weeks
# Method: TEWAMETER® TM 300 (Courage & Khazaka, Cologne, Germany): Transepidermal water loss (TEWL) is a non-invasive method to measure the barrier function of the skin and is regarded as a sensitive parameter to quantify skin barrier damage. Briefly, the insensible water evaporation from the skin is measured by placing cylindric open chamber with two hygrosensors at defined distance to the skin. The probe is held in place for each measurement for 30 seconds. This is to assure that a stable value has been established. The first part of the measurements belongs to this equilibration phase. The values of the last 10 seconds (=10 values) are averaged as the actual measurement value.
# TEWAMETER® TM 300 (Courage & Khazaka, Cologne, Germany): Transepidermal water loss (TEWL) is a non-invasive method to measure the barrier function of the skin and is regarded as a sensitive parameter to quantify skin barrier damage. Briefly, the insensible water evaporation from the skin is measured by placing cylindric open chamber with two hygrosensors at defined distance to the skin.
# [2] = system: reconstructed human epidermis (RHE); experiment: PGE2 release in reconstituted human epidermis under UV stimulation; assay type: cell-based; details: UVB (+UVA) irradiated RHE
# Method: Ten-day-old reconstructed human epidermis (RHE) were placed in maintenance medium. The RHE were topically treated with or without moisturizing creams containing different concentration of Urolithin A active and incubated for 24 hours. The RHE were then rinsed in PBS and irradiated with UVB (+UVA)—850 mJ/cm^2 (+6 J/cm^2) using a SOL500 Sun Simulator equipped with an H2 filter (Dr. Hönle, AG). After irradiation, the treatments were renewed and the RHE were incubated for 24 hours. In parallel, non-irradiated conditions were performed and kept in the dark during the irradiation time. All experimental conditions were performed in n=3. PGE2 released in the culture supernatants was measured using a specific ELISA kit according to the supplier's instructions (Enzo Life Sciences, ref. ADI-900-001). Statistical analysis performed by One-Way Anova.
# [3] = system: human skin; experiment: RNA-seq transcriptomics and GSEA of forearm skin biopsies (aging study 1); assay type: in vivo; details: 8 weeks; for expression of collagen genes (COL1A1, COL5A1, COL5A2, COL14A1, COL3A1) / gene set "collagen fibril organization" (Normalized Enrichment Score): 1% Mitopure product; for expression of collagen genes (COL1A1, COL5A1, COL5A2, COL14A1, COL3A1): change vs baseline normalized over placebo; for gene set "collagen fibril organization" (Normalized Enrichment Score): end of study vs baseline, normalized over placebo/vehicle
# Method: In this study, a cosmetic product with a 1% concentration of the active Mitopure or a placebo product were tested on skin aging for 8 weeks. […] Gene set enrichment analysis (GSEA) was performed using the R package ClusterProfiler [Yu et al., 2012]. Briefly, in each comparison, genes were ranked by age beta score value, and the enrichment of a given gene set among up- or-down regulated genes was statistically tested. The minimum and maximum gene set sizes were set to 10 and 500, respectively. Resulting p-values were adjusted using the BH method. Terms with an adjusted p-value<0.05 were considered as statistically significant. To analyze mitochondrial effects biopsies will be taken from a subpanel on volar forearms prior and after 8 weeks of product application and will be analyzed for biomarkers by 3rd parties (See FIGS. 2 and 4). Gene set enrichment analysis (GSEA) will be employed to look for overrepresentation of known mitochondrial pathways and gene functional categories among the regulated genes expressed in human skin. Genes will be ranked by fold change (high to low) and filtered (unadjusted P value of 0.1 before using them) in the GSEA analysis to reduce the risk of false positives. Gene sets defined by the Gene Ontology (GO) Consortium (http://www.geneontology.org/) will be analyzed. We investigated biological pathways impacted by topical UA application performing RNA-seq transcriptomics of forearm skin biopsies from the aging study I. Gene set enrichment analysis (GSEA) was applied to identify significant pathways changed by UA comparing end of the study to baseline, and normalizing results over vehicle. […] We further studied which UA regulated pathways are involved in the natural skin aging process. […] This gene set includes collagen genes encoding for fibrillar type I and III collagen (FIG. 13B), known to decline in skin with chronological aging 13, photo-aging and smoking 14. […] Among them, […]-1, regulating 3D structure and elasticity 15 and AEBP, encoding for a collagen-interacting protein required for optimal tissue repair 16 (FIG. 13B).
# [4] = system: 3D reconstituted human epidermis (RHE); experiment: Gene expression in 3D reconstituted human epidermis after daily cream application; assay type: cell-based; details: UA 1% moisturizing cream daily for 3 days, vs Vehicle
# Description: Finally, we employed a model of 3D reconstituted human epidermis (RHE) applied daily with the UA 1% moisturizing cream for 3 days.
# [5] = system: wrinkles in the periorbital regions; experiment: Aging study 2: skin roughness (wrinkle) by DermaTOP; assay type: in vivo, human; details: 1% UA creams, 2, 4 and 8 weeks, vs untreated side; listed as UA
# Description: Anti-wrinkle efficacy will be assessed in the periorbital regions by investigating the three-dimensional structure of the wrinkles (DermaTOP). Skin hydration, skin elasticity effects and skin barrier function will be investigated by Corneometer, Cutometer and Tewameter measurements. On a subgroup of 12 subjects the ceramide content, including barrier lipids, in the Stratum Corneum will be performed by Raman Spectroscopy. […]
# DERMATOP blue (Eo Tech SA, Marcoussis France): Using phase-shifted and gray-coded measurements of human skin the three-dimensional surface structure of the investigated skin site is captured. […] The fringes that are projected under a defined triangulation angle onto the surface of the measured target with a sinus-like intensity of brightness are detected with a CCD camera. The three-dimensional skin surface profile is calculated from the position of the fringes in combination with the gray values of each pixel. From the captured three-dimensional structure, roughness parameters are calculated. […]
compound,measurement,setting,value
O=c1oc2cc(O)ccc2c2ccc(O)cc12 [Urolithin A],skin barrier function,[1],no significant impact
same,PGE2 secretion compared to irradiated skin treated with basic cream formulation without UA,[2]; all UA concentrations tested,significantly reduces PGE2 secretion
same,PGE2 secretion compared to irradiated non-treated skin,"[2]; cream with UA at 0.5%, 1% and 2%, supernatant ELISA",significantly reduces PGE2 secretion
same,"expression of collagen genes (COL1A1, COL5A1, COL5A2, COL14A1, COL3A1)",[3],significant up-regulation
same,"expression of collagen genes (COL1A1, COL5A1, COL5A2, COL14A1, COL3A1)",[3]; listed as Mitopure,increased expression; also recorded: all upregulated; also recorded: improved expression
same,"gene set ""collagen fibril organization"" (Normalized Enrichment Score)",[3],significantly upregulated; also recorded: positive
same,"gene set ""collagen fibril organization"" (Normalized Enrichment Score)",[3]; listed as UA,most significantly activated pathway
same,"genes involved in skin homeostasis (EMILIN-1, AEBP)",[3]; UA 1% topical,rescued age-associated decline
same,gene sets related to chemokine response,"[3]; UA 1% topical, normalized over vehicle",reducing
same,MMP1 and MMP3 gene expression,[4],No change
same,mitophagy and autophagy genes,[4],early activation
same,"wrinkles (finer and rougher skin structures, Ra and Rz)",[5],significant anti-wrinkle effects; also recorded: significant impact on reducing wrinkles
